system: benzodiazepine receptors; experiment: in vivo displacement of 3H-flunitrazepam from brain benzodiazepine receptors in mice; parameters: species or system mice (female, NMR); settings: i.p. test substance 15 min before 3H-flunitrazepam i.v., dose reducing specific forebrain binding to 50% of control
From the text: The pharmaceutical properties of the compounds of the invention can be illustrated by determining their capability for displacing radioactive labelled flunitrazepam from benzodiazepine receptors.
The displacement activity of the compounds of the invention may be found by determining the ED50 value. The ED50 value represents the dose (mg/kg) of a test substance which causes the specific binding of flunitrazepam to benzodiazepine receptors in a living brain to be reduced to 50% of the control value.
Such an in vivo test is carried out as follows:
Principle. Twenty minutes after a dose of ^3 H-flunitrazepam (^3 H-FNM) (200μCi/kg, i.v.) the amount of specific ^3 H-FNM binding to brain benzodiazepine receptors has reached its maximal value.
Test procedure. Suspensions of test substances (2 mg/ml) are prepared in 5% Duphasol-X (TM Duphar, castor oil-ethylene oxide derivative for emulsifying and solubilizing oil and other water-insoluble substances) by sonification for 10 min using a Branson B15 microtip ultrasonifier (setting 7). Groups of three mice (female, NMR, 18-22 grams) are injected with the test substance at 100 mg/kg intraperitoneally. Fifteen minutes after test substance administration the mice are challenged with 4 μCi intravenously of ^3 H-FNM (70-90 Ci/mole) in 200 μl physiological saline. Twenty minutes after ^3 H-FNM administration mice are sacrificed by decapitation, the forebrains rapidly excised (within 30 sec) and homogenized in 12 ml of icecold 25 mM KH2 PO4, pH 7.1, using an Ultra-Turrax homogenizer fitted with an N 10 shaft. Two aliquots of 1 ml are immediately filtered through Whatman GF/C glassfibre filters and washed with 2×5 ml of the above mentioned buffer. The amounts of radioactivity on the filters are determined by conventional scintillation counting. One group of untreated mice serves as control. One to three mice are injected with 25 μg/kg clonazepam i.p. 30 minutes before ^3 H-FNM to determine the amount of non-specific ^3 H-FNM binding, which should be between 8-15% of total binding. When doses of 100 mg/kg inhibit more than 50% of specific ^3 H-flunitrazepam binding; test substances are administered in doses, which are factors of 3.16 times lower than 100 mg/kg. The ED50 for a test substance is defined as that dose which inhibits 50% of specific ^3 H-FNM binding. Specific binding is the amount of binding in controls minus the amount binding in clonazepam-treated mice.
Results. The ED50 value is determined from dose response curves. If only one dose of test substance is administered the ED50 value is calculated as follows, provided that the inhibition of specific binding is within the range of 25-75%: [formula] where Co is specific binding in controls and Cx is specific binding in mice treated with test substance.

Going from `Cn1c(=O)c2c(Oc3ccc(F)cc3)cccc2n2cnc(-c3noc(C4CC4)n3)c12` to `CCn1c(=O)c2c(-c3noc(C4CC4)n3)ncn2c2cccnc21`, the “in vivo bind. ED50” value falls from 2.9 mg/kg to 0.7 mg/kg (4.1-fold).

Going from `Cc1nc(-c2ncn3c4cccc(C#C[Si](C)(C)C)c4c(=O)n(C)c23)no1` [4,5-Dihydro-4-methyl-3-(5-methyl-1,2,4-oxadiazol-3-yl)-5-oxo-6-trimethylsilylethynyl-imidazo(1,5-a)quinazoline] to `Cn1c(=O)c2c(-c3nc(C4CC4)no3)ncn2c2cccnc21`, the “in vivo bind. ED50” value falls from 3.7 mg/kg to 0.9 mg/kg (4.1-fold).

`CCn1c(=O)c2c(-c3nc(C4CC4)no3)ncn2c2ccccc21` was tested, and the “in vivo bind. ED50” value was 1.4 mg/kg.
